Measured values: patent US8580231B2, “Compositions and methods comprising magnetic resonance contrast agents” (Northwestern University, priority 2008, dated 2013)
“Also recorded” adds a separate entry of the source. Marks after values point to notes of the source that are not given here.

Experiments:
[1] = taken from Caravan et al.; cited from earlier work
[2] = Biodistribution study (Gd(III) in organs by ICP-MS); type: in vivo, mouse; conditions: mice, organs harvested 30 minute to 24 hour
[3] = system: PR(+) T47D and PR(−) MDA-MB-231 xenografted tumors; conditions: previously reported (ref. 19); cited from earlier work
[4] = target: T1, progesterone receptor A ligand binding domain (amino acids 675-933) fused to GST (PR-LBD-GST) (Homo sapiens, UniProt P06401); test: Receptor binding to nPR (fluorescence polarization, Example 17)
T1 construct: purchased Invitrogen
T1 sequence (P06401 675-933): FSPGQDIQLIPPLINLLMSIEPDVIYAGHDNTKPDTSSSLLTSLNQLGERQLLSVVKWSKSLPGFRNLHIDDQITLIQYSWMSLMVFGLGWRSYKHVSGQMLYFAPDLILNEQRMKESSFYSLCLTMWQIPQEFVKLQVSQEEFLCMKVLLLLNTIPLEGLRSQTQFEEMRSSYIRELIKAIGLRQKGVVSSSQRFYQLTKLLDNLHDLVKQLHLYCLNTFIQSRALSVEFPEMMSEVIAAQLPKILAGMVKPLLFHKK

[5] = system: PR(+) (T47D) human breast cancer cells; test: Cellular uptake studies (Example 17), PR(+) cells; type: cell-based; conditions: 0.125 mM for 1, 4, 10, 24 h or 0.25-2 mM for 4 h
Description: Contrast agents were dissolved in the appropriate medium (containing stripped FBS) for each cell line (T47D and MDA-MB-231) at concentrations of 2, 1, 0.5, 0.25, and 0.125 mM of contrast agent. For concentration-dependent cellular uptake, cells were incubated with 2, 1, 0.5, and 0.25 mM of each contrast agent for 4 h. For the time dependent cellular uptake, cells were incubated with 0.125 mM contrast agent for 1, 4, 10, and 24 h. After incubation, the media was removed, and the cells were rinsed twice with PBS and trypsinized. An aliquot was used for cell counting and the remaining portion was analyzed for Gd(III) content by ICP-MS. Each condition was done in triplicate.
To determine the cell permeability of the compounds, PR(+) (T47D) and PR(−) (MDA-MB-231) human breast cancer cells were incubated with 1a, 2a, 3a, and 4a. Time- and concentration-dependent experiments were performed to identify the optimal dose and incubation times of the agents (FIG. 16).

[6] = system: PR(+) T47D and PR(−) MDA-MB-231 xenografted tumors; test: In vivo MR imaging of xenografted nude mice (contrast-to-noise ratio); design: species or system mouse; conditions: for change in tumor CNR over preinjection levels: 2 and 6 h postinjection; for change in tumor CNR over preinjection levels / CNR of PR(+) tumor compared to PR(−) tumor: intraperitoneal; for CNR of PR(+) tumor compared to PR(−) tumor: 0.15 mmGd/kg in DMSO
Description: Female Balb/C athymic nude mice were acquired from Harlan (Indianapolis, Ind.) and housed under pathogen free conditions. All animal studies were conducted at Northwestern University in accordance with the National Institutes of Health Guide for the Care and Use of Laboratory Animals and established institutional animal use and care protocols. Due to low circulating estradiol levels in nude mice, a 17β-estradiol pellet (Innovative Research of America, Sarasota, FA, 70-day release, 0.72 mg/pellet) was implanted subcutaneously in the nape of the neck to ensure growth of estrogen-dependent T47D cells. Two to seven days later, T47D and MDA-MB-231 ((1−2)×10^6) cells were suspended in Matrigel (1:1 volume) and injected subcutaneously into the rear flank (T47D cells on the right side and MDA-MB-231 cells on the left). Mice were monitored for tumor growth every two to three days after injection of cells. Mice were imaged two to three weeks after xenografting when tumors were palpable with a minimum weight of 20 mg (determined after tumor removal postimaging).
Xenografted nude mice were injected intraperitoneally (n=1 per compound) with each agent (0.15 mmGd/kg) dissolved in 50 μL, DMSO. During imaging, mice were maintained under anesthesia (1-3% isoflurane) but were allowed to wake up and recover between imaging time points. Tubing containing heated water was positioned under the mouse to keep a constant body temperature. All MR imaging was performed on a 89 mm bore size PharmaScan 7.05 T MR imager fitted with shielded gradient coils (Bruker BioSpin, Billerica, Mass., USA) using a RF RES 300 1H 089/038 quadrature transmit receive volume coil (Bruker BioSpin, Billerica, Mass., USA). […] Images were analyzed using ImageJ. Contrast-to-noise ratio (CNR) was calculated using the equation CNR=(SITissue−SImuscle)/σnoise where SITumor is the signal intensity in the tumor, SIMuscle is the signal intensity in the muscle, and σnoise is the standard deviation of the noise. CNRs were averaged over two to three axial slices in which the tumors were clearly demarcated.
To determine whether the water-soluble progesterone-conjugated agents would increase the contrast-to-noise ratio (CNR) of PR(+) tumors relative to PR(−) tumors in vivo, athymic nude mice with PR(+) and PR(−) xenografted tumors were injected intraperitoneally with 1a, 2a, or 3a dissolved in DMSO and imaged at 2 and 6 h postinjection. Intraperitoneal injection was chosen over subcutaneous injection because it yielded more consistent results in previous studies, and the parent compound, ProGlo, has been more extensively studied for its biodistribution after intraperitoneal injection. (19) In addition, while these agents are water-soluble, they were dissolved in DMSO to compare back to previous in vivo imaging with the insoluble ProGlo and the control agent 4a.(19)

[7] = system: PR / pPRE-luciferase in T47D cells; test: Luciferase assay for nPR activation; type: cell-based, human; conditions: 24 h
Description: T47D cells were grown in phenol-free medium, and cells were trypsinized and plated in 24-well plate (50 000 cells/well). Incubation of cells with the pPRE-luciferase plasmid (100 ng/well, construct provided by Dr. Ken Korach, NIEHS, NIH), RSV-β-galactosidase (100 ng/well, provided by Dr. William T. Beck, University of Illinois at Chicago), and Lipofectamine 2000 (1 μL per well, Invitrogen, Carlsbad, Calif.) in Opti-MEM was performed overnight at 37° C. inside a humidified incubator. The cells were treated with 1a, 2a, 3a, and 4a for an additional 24 h.
To measure luciferase production, cells were lysed in 100 μL GME buffer (25 mM glycylglycine at pH 7.8, 15 mM MgSO4, 4 mM EGTA, 1 mM dithiothreitol, and 1% Triton X-100) and lysates were added to assay buffer (GME buffer, 16.5 mM KPO4, 2.2 mM ATP, and 1.1 mM dithiothreitol). Luciferase substrate was injected followed by a 30 s read by a FLUOstar OPTIMA (BMG Lab Tech, Offenburg, Germany). LacZ activity (50 μL lysate) was measured from cleavage of ONPG. The sample results were normalized to β-galactosidase to account for transfection efficiency by dividing the sum of the luciferase activity by the sum of the β-galactosidase activity. Fold change was calculated by taking the luciferase value, dividing by the β-galactosidase activity, and then dividing by the solvent control, which was set equal to one. […]

tissue distribution of Gd(III) (percentage per gram of tissue) [2] | Compound | cellular Gd(III) uptake [5] | change in tumor CNR over preinjection levels [6] | CNR of PR(+) tumor compared to PR(−) tumor ([6]; 6 h postinjection) | also measured
 | CC(O)CN1CCN(CC(=O)[O-])CCN(CC(=O)[O-])CCN(CC(=O)[O-])CC1.[Gd+3] (centres unmarked) [Prohance] |  |  |  | Relaxivity [1]: 3.7* mM^−1s^−1
mainly end up in the liver and kidney | CCCCCCN1CCN(CC(=O)[O-])CCN(CC(=O)[O-])CCN(CC(=O)[O-])CC1.[Gd+3] [hexyl-DO3A-Gd(III)] |  |  |  | 
mainly end up in the liver and kidney | DO3A-Gd(III) |  |  |  | tumor CNR after injection [3]: only minimal increases in CNR over time
 | {2,2′,2″-(10-(2-(((1-(5-(2-(10,13-Dimethyl-3-oxo-2,3,6,7,8,9,10,11,12,13,14,15,16,17-tetradecahydro-1H-cyclopenta[a]phenanthren-17-yl)-2-oxoethoxy)pentyl)-1H-1,2,3-triazol-4-yl)methyl)amino)-2-oxoethyl)-1,4,7,10-tetraazacyclododecane-1,4,7-triyl)triacetate}gadolinium [Compound 1a] | increased slightly after 1 h and then stabilized | several-fold increase in CNR; also recorded: increased CNR by 2 h, but CNR had decreased by 6 h | significantly higher CNR | RBA, fold less than that of progesterone [4]: about 100 fold; CNR of PR(+) tumor compared to PR(−) tumor ([6]; 2 h postinjection): significantly higher CNR; fold change in CNR in the PR(+) tumors, percent higher than with ProGlo ([6]; 2 h time point, compared to preinjection CNR): 16%
 | {2,2′,2″-((10-((1-(5-(2-(10,13-Dimethyl-3-oxo-2,3,6,7,8,9,10,11,12,13,14,15,16,17-tetradecahydro-1H-cyclopenta[a]phenanthren-17-yl)-2-oxoethoxy)pentyl)-1H-1,2,3-triazol-4-yl)methyl)-1,4,7,10-tetraazacyclododecane-1,4,7-triyl)triacetate}gadolinium [Compound 2a] | time-dependent accumulation | slow increase in CNR over time | significantly higher CNR | PRE-mediated transcription (luciferase activity) [7]: lowest efficacy
